Source: ChEMBL document CHEMBL1140390, “ERbeta ligands. Part 4: Synthesis and structure-activity relationships of a series of 2-phenylquinoline derivatives” (Bioorg Med Chem Lett, 2005)

What was measured:
Estrogen receptor beta = Estrogen receptor beta (Homo sapiens, UniProt Q92731)
Description: Binding affinity for human Estrogen receptor beta

Estrogen receptor = biological target: T1, Estrogen receptor (Homo sapiens, UniProt P03372)
T1 sequence (P03372 whole entry): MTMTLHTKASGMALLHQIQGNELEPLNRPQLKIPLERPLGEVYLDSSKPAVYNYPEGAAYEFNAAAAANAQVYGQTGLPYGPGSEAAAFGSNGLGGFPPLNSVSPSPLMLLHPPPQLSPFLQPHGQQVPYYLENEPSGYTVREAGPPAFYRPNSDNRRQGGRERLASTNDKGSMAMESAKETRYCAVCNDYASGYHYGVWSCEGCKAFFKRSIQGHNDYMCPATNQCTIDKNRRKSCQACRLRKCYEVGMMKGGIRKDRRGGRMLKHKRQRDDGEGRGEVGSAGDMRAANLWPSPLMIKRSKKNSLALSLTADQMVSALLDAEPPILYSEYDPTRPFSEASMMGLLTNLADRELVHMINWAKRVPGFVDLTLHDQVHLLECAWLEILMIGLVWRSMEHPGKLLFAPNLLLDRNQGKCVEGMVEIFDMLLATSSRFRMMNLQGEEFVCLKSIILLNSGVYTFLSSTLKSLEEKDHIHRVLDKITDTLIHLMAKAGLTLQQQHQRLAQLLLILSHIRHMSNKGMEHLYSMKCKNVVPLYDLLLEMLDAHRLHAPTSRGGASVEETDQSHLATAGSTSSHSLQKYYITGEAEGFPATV
Description: Binding affinity for human Estrogen receptor alpha

Estrogen receptor beta, sequence (Q92731 whole entry): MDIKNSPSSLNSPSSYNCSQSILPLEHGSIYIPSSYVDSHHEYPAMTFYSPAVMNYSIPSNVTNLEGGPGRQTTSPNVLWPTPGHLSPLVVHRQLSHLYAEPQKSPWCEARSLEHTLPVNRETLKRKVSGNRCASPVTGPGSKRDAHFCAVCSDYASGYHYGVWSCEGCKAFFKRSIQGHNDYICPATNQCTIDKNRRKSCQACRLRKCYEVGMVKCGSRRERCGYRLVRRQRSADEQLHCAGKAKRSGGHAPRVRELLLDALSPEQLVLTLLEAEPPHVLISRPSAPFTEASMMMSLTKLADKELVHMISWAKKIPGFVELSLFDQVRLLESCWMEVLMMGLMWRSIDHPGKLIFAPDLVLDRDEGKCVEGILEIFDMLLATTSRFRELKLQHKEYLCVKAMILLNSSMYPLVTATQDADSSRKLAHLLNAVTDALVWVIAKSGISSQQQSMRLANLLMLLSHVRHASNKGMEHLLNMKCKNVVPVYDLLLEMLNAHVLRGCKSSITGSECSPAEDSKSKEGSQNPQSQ

Compound	IC50 (Estrogen receptor beta)	IC50 (Estrogen receptor)
C#Cc1cc(-c2ccc(O)c(F)c2)nc2ccc(O)cc12	27 nM	1310 nM
Oc1ccc2nc(-c3ccc(O)c(F)c3)cc(-c3ccccc3)c2c1	211 nM	1810 nM
CC(O)c1cc(-c2ccc(O)c(F)c2)nc2ccc(O)cc12 (stereo not drawn)	> 5000 nM	> 5000 nM
Oc1ccc(-c2ccc3c(Br)c(O)ccc3n2)cc1	88 nM	1140 nM
CCc1cc(-c2ccc(O)c(F)c2)nc2ccc(O)cc12	79 nM	1750 nM
C#Cc1cc(-c2ccc(O)cc2)nc2ccc(O)cc12	75 nM	
Oc1ccc2nc(-c3cc(F)c(O)c(F)c3)cc(Br)c2c1	36 nM	783 nM
C=Cc1cc(-c2ccc(O)c(F)c2)nc2ccc(O)cc12	44 nM	385 nM
Oc1ccc(-c2ccc3cc(O)ccc3n2)cc1	171 nM	1780 nM
CC(=O)c1cc(-c2ccc(O)cc2)nc2ccc(O)cc12	221 nM	3140 nM
CCc1cc(-c2ccc(O)cc2)nc2ccc(O)cc12	52 nM	634 nM
Oc1ccc(-c2ccc3c(Cl)c(O)ccc3n2)cc1	30 nM	632 nM
